# Laboratory results reported in the OPERA property sets (Mansouri et al. 2018).
# Peptide text beside a SMILES is read from it.
# Conditions: not given
row,SMILES,logP
1,CNC(=O)Oc1cccc(C#N)c1,0.97
2,O=Ic1ccccc1,-1.61
3,OCCn1nnc2ccccc21,0.5
4,COc1ccc(C=CNC=O)cc1,1.94
5,COc1ccccc1C(=O)c1ccncc1,1.86
6,COc1ccc(Cl)nn1,0.89
7,c1ccc(Sc2ccccc2)cc1,4.45
8,Cc1cc(-c2ccccc2)nnc1NCCN1CCOCC1,2.03
9,Oc1cc(O)cc(O)c1,0.16
10,CC1OC(OC2C(O)CC(OC3C(O)CC(OC4CCC5(C)C(CCC6C5CCC5(C)C(C7COC(=O)C7)CCC65O)C4)OC3C)OC2C)CC(O)C1O (stereo not given),2.9
11,CCCCC(C)=O,1.38
12,O=C(OCn1ncc2c(=O)[nH]cnc21)c1ccc(CN2CCOCC2)cc1,1.12
13,CCNc1nc(Cl)nc(NCC)n1,2.18
14,CCCCCCCCCC1(c2ccncc2)CCC(=O)NC1=O (stereo not given),4.64
15,NC(=O)c1ccccc1N,0.35
16,CS(=O)(=O)c1cccc(-c2nc(N)nc(N)n2)c1,0.29
17,Nc1cc2ccccc2nn1,1
18,O=C(O)c1cccc([N+](=O)[O-])c1C(=O)O,0.75
19,C#CCC(O)c1cccnc1 (stereo not given),1.21
20,On1nc2ccccc2n1,0.69
21,CSc1ccccc1N,1.2
22,Cc1onc(-c2ccccc2)c1C(=O)NC1C(=O)N2C1SC(C)(C)C2C(=O)O (stereo not given),2.38
23,C=CC(=O)OCC(C)C,2.22

row,SMILES,logP
1,CN(CCO)N=Nc1ccc(C(N)=O)cc1,0.26
2,CC(N)=S,-0.26
3,CCN(CC)C(C)C(=O)OCn1ncc2c(=O)[nH]cnc21 (stereo not given),0.72
4,CC(C)c1cccc(OCC(=O)O)c1,2.59
5,Oc1ccc2cccc(O)c2c1,1.94
6,Clc1cccc2nccnc12,1.75
7,Cc1ccc(-c2nc(N)nc(N)n2)cc1,1.92
8,O=C(O)c1ccc2oc3ccccc3c(=O)c2c1,3.12
9,CCC(=O)OC(Cc1ccccc1)(c1ccccc1)C(C)CN(C)C (stereo not given),4.18
10,O=C(O)CCCCN1C(=O)C=CC1=O,0.6
11,c1ccc(Nc2ccccc2)cc1,3.5
12,CC(C)(C(=O)O)C(=O)O,0.39
13,Nc1cc(Cl)c(Cl)c(Cl)c1,3.32
14,Oc1c(O)c(Cl)c(Cl)c(Cl)c1Cl,4.29
15,COc1ccc(CC#N)cc1,1.7
16,c1ccc2c(c1)Oc1ccccc1S2,4.54
17,O=C(O)C1CC1,0.63
18,CCOC(=O)C(=Cc1ccc(Cl)cc1Cl)C(C)=O,3.67
19,N#Cc1cccc(OCC(=O)O)c1,0.95
20,c1ccc2nc3ccccc3nc2c1,2.84
21,CSc1ccc2ccccc2n1,3.04
22,CCCC(=NOCC)C1C(=O)CC2(CCC(CC)CC2)OC1=O (stereo not given),4.48
23,CC(=O)c1cccc(O)c1,1.39

row,SMILES,logP
1,O=[N+]([O-])c1ccc(Cl)cc1,2.39
2,O=[N+]([O-])c1ccc(OCC(O)CNCC(O)COc2ccccc2)cc1 (stereo not given),2.62
3,Cc1ccnc(NS(=O)(=O)c2ccc(N)cc2)n1,0.14
4,CC(=O)N[C@H](C(=O)N[C@@H](C)C(=O)N[C@H](C(N)=O)C(C)C)C(C)C (Ac-Val-Ala-Val-NH2),-0.67
5,C=CCOc1noc2c1CNCC2,0.56
6,CCCCCN,1.49
7,CCCNCCC,1.67
8,Clc1ccc(Cl)c(-c2ccc(Cl)c(Cl)c2)c1,6.23
9,CCOC(=O)C(=Cc1ccc(Cl)c(Cl)c1)C(C)=O,3.92
10,CN(C)C(=O)c1ccco1,0.41
11,N#Cc1ccc(OCC(=O)O)cc1,0.93
12,COc1ccc(C(C#N)C(C)C)cc1 (stereo not given),2.68
13,FC(F)(Cl)C(F)(Cl)Cl,3.16
14,C[C@]12CCC(=O)C=C1CC[C@@H]1[C@@H]2CC[C@@]2(C)[C@H]1CC[C@]2(C)O,3.36
15,COP1(=S)OCc2ccccc2O1 (stereo not given),2.67
16,Cc1cccc(C#N)n1,0.84
17,CCCOP(=O)(OCCC)OCCC,1.87
18,O=[N+]([O-])c1ccc2[nH]nnc2c1,1.95
19,CCCCC(CC)CN (stereo not given),2.82
20,CCC(C)c1ccccc1OCC(=O)O (stereo not given),3.32
21,CCCC(O)CCC,2.22
22,CCCCOCC,2.03
23,ICCCc1ccccc1,3.9

# Same assay, conditions: pH 7.4
row,SMILES,logD
1,O=C(O)CCCc1ccc(N(CCCl)CCCl)cc1,1.7
